Results on five compounds are retold here after patent EP0600342A1, “Hispidospermidin and pharmaceutical compositions” (F. HOFFMANN-LA ROCHE AG, priority 1992, dated 1994).

The subject of data set [1] is partially purified rat brain PLC. The experiment in a line: Inhibitory activity against PLC (hydrolysis of radiolabelled PI). The class given is biochemical. To be noted: 250 µM PI substrate, 2 mM CaCl₂, Tris-acetate buffer pH 5.5, 20 min at 30 °C; read-out: IC₅₀. The method, then:
Inhibitory activity of hispidospermidin against PLC was measured. The assay mixture (0.1 ml) contained 200 mM Tris-acetate buffer (pH 5.5), 2 mM CaCl₂, 250 µM PI (suspended in the buffer, specific activity: 800 dpm/nmole) and enzyme. In the standard assay, 20 µl of inhibitor in 15 mM Tis-HCl buffer (pH 7.5) was added to the substrate suspension (50 µl). The reaction was started with addition of the enzyme solution prepared from partially purified rat brain PLC (30 µl, ca. 5 µg protein) and incubated for 20 min. at 30 °C. The reaction was terminated by adding 0.3 ml of unlabeled PI (200 µM) solution containing 1 mg/ml of bovine serum albumin and 1 mM EGTA, followed by adding of 0.3 ml of 7.5% ice cold trichloroacetic acid containing 3 mM CaCl₂. Under the conditions, the enzyme hydrolyzed about 30 % of substrate in the assay mixture. As a positive control showing 100% inhibition of PLC, 20 µl of 25 mM EDTA was added to the assay mixture. The incubation mixture was kept on ice for 10 min asn centrifuged at 1,700 x g for 10 min. The radioactivity of an aliquot (0.2 ml) of the supernatant was measured by liquid scintillation counter (ALOKA).

Data set [2] can be described thus: Solubility (physico-chemical properties). The class given is physicochemical. To be noted: qualitative, by solvent.
A short description of data set [3]: Acute toxicity. The class given is in vivo. To be noted: no species, dose or route stated.

Entries after “also recorded” stand apart in the source; their conditions may differ.

`NC[C@H]1O[C@H](O[C@H]2[C@H](O)[C@@H](O[C@H]3O[C@H](CO)[C@@H](O)[C@H](N)[C@H]3O)[C@H](N)C[C@@H]2N)[C@H](N)C[C@@H]1O` [Tobramycin]: the IC50 in data set [1] came out at 29.9 µM.

In the case of `CCN(CC)CCCC(C)Nc1c2ccc(Cl)cc2nc2ccc(OC)cc12` (stereo not shown) [Quinacrine], the IC50 in data set [1] was 314 µM.

In the case of `NCCCNCCCCNCCCN` [Sperimine], the IC50 in data set [1] was found to be 59.3 µM.

As to `C[C@@H]1CC[C@H]2[C@]13CC[C@@]1(C)O[C@]2(C)[C@@H](NCCCCN(C)CCCN(C)C)[C@H]1C3` [Hispidospermidin, hispidospermidin], the IC50 in data set [1] was determined as 15.7 µM. For the same compound, the Solubility result in data set [2] was “Soluble in MeOH, CHCl₃, acetone, acidic water; also recorded: Insoluble in water”. Also, the Acute toxicity result in data set [3] was “not observed”.

Consider `CN1CCN(CCCN2c3ccccc3Sc3ccc(C(F)(F)F)cc32)CC1` [Trifluoperazine], for which, in data set [1], the IC50 is 150 µM.
